Laboratory results from US5461061A, “Centrally acting 6,7,8,9-tetrahydro-3H-benz(E)indole heterocyclics” (priority 1993, dated 1995).
Where a name gives a salt, the structure may show the parent alone. Read-outs that look alike come from different tables or passages of the source.

Key:
5-HT1A sites = conditions: 3H-8-OH-DPAT, rat brain homogenates; cited from earlier work
5-HT1A = conditions: cited from earlier work
[1] = system: central 5-HT receptor (5-HTP accumulation in the limbic forebrain); experiment: In vivo rat brain tryptophan hydroxylation (5-HTP accumulation, limbic forebrain) after reserpine pretreatment and NSD 1015; conditions: reserpine-pretreated rats, read-out: 5-HTP ED50 (limb)
Protocol: (§1) In vivo determination of a rat brain tyrosine and tryptophan hydroxylation after reserpine pretreatment (biochemically monitored dopamine and 5-HT receptor activity).
(§2) The compounds under evaluation were tested biochemically for central dopamine and 5-HT receptor (pre- and/or post-synaptic) stimulating activity. The concept of this biochemical screening method is that a dopamine or 5-HT-receptor agonist will stimulate the receptor and through regulatory feedback systems effect a decline in tyrosine or tryptophan hydroxylating activity, respectively, and a subsequent reduction in the synthesis rate for dopamine and 5-HT in the presynaptic neuron. Dopa and 5-HTP formation, as determined after in vivo inhibition of the aromatic L-amino acid decarboxylase with NSD 1015 (3-hydroxybenzylhydrazine hydrochloride) are taken as indirect measures of dopamine and 5-HT synthesis rates, respectively as described by Wikstrom et al., J. Med. Chem., 27, 1030, 1984.
(§3) Rats (150-300 g) pretreated with reserpine (5 mg/kg, 18 hours before) were given the test compounds. Gross behavioral observations (changes in motility, hindleg abduction, etc.) were made. Subsequent administration of NSD 1015, decapitation, brain dissection (corpora striata, the limbic forebrain and the remaining hemispheral portions (mainly cortex) or rat brain), homogenization, centrifugation, ion-exchange chromatography and spectrofluorimetric measurements (all as described in detail by Wikstrom, et al., M. Med. Chem., 21, 864-867, 1978 and reference cited therein), or by HPLC/EC, gave the actual […] and 5-HTP levels. Several doses (n=4-6) were tested for each compound and brain area. The dose of a compound giving 50% of the maximal reduction of the 5-HTP level in the rat brain part was then estimated.
(§4) "+" indicates a motoric activation of the animals.

[2] = system: central dopamine receptor (DOPA accumulation in the striatum); experiment: In vivo rat brain tyrosine hydroxylation (DOPA accumulation, striatum) after reserpine pretreatment and NSD 1015; conditions: sc, reserpine-pretreated rats, bracket = highest dose tested, read-out: Dopa ED50 (stri)
Protocol: as §1, §2
Rats (150-300 g) pretreated with reserpine (5 mg/kg, 18 hours before) were given the test compounds. Gross behavioral observations (changes in motility, hindleg abduction, etc.) were made. […]

[3] = system: motor activity / gross behavior (DA or 5-HT behavioral syndrome); experiment: Motor activity and gross behavior in reserpine-pretreated rats; assay type: in vivo, rat
From the text: Antagonism of the reserpine-induced "neuroleptic syndrome" in the rat (gross behavior)
Depletion of the monoamine stores with reserpine brings about a "neuroleptic syndrome" characterized by hypomotility, catalepsy, muscle rigidity, hunch-backed posture as well as a number of other central and peripheral signs of monoamine depletion. The whole or parts of this syndrome can be reversed by the administration of drugs that stimulate dopamine or 5-HT receptors directly or indirectly.
Stimulation of the dopamine receptors, with apomorphine for example, gives rise to both locomotion and stereotyped behavior such as sniffing, gnawing and jumping. On the other hand, stimulation of the 5-HT receptors, with 5-hydroxytryptophan (5-HTP) combined with MAO-inhibitors for example, gives rise to a very different behavior.
as §3, §4

[4] = Blood pressure, heart rate and rectal temperature in awake spontaneously hypertensive rats (SHR); assay type: in vivo, rat (spontaneously hypertensive; conditions: for Δtemp max: rectal; for bioavailability: rat, in vivo
Protocol: (§5) The male spontaneously hypertensive rats (SHR), or normotensive Sprague-Dawley rats # were implanted wit catheters in the arteria carotis and vena jugularis. The blood pressure (BP), heart rate (HR) and rectal temperature were recorded 24 hours later in the awake rat after per oral (p.o.) or intravenous *i.v.) administration of test drugs. Recording time was at least 90 minutes. Shown are the maximal effects during the 90 min recording period expressed as the deviation from baseline values (SHR:BP; 174±6 mmHG, HR; 366±10 beats/min, RT; 38.7±0.15 C and normotensives: BP; 111±3 mmHG, HR; 369±15 beats/min, RT; 38.7±0.23 C, means ±SEM, n=7) (means ±SEM, n=3-4). In case of a biphasic response (heart rate) during the 90 min, both maximal and minimal levels are shown period. The bioavailability calculations were based on the areas under the curves after po and iv administration.
(§6) *denotes statistical significant difference (p<0.05, or less) compared to saline treated controls (ANOVA followed by Fischer's test).

[5] = target: noradrenaline (NA) (α2) receptor; experiment: In vitro binding, brain noradrenaline alpha2 receptor sites; parameters: species or system rat; conditions: non-pretreated rats
[6] = Blood pressure, heart rate and rectal temperature in awake normotensive rats (#); assay type: in vivo, rat (normotensive Sprague-Dawley); conditions: 0.2 μmol/kg i.v.
Protocol: as §5, §6

central DA receptor = conditions: cited from earlier work
dopamine receptors = conditions: cited from earlier work
[7] = Stability remark on isolated product; assay type: physicochemical
[8] = sc, bracket = highest dose tested
[9] = 2.0 μmol/kg i.v., (±) 13a / (±) 13b
[10] = 2.0 μmol/kg i.v., second printed (±) 13a line (biphasic, maximal level) / first printed (±) 13b line
[11] = 10.0 μmol/kg i.v., first printed (±) 13a line, no # printed
[12] = 10.0 μmol/kg i.v., second printed (±) 13a line
[13] = 10.0 μmol/kg p.o., (±) 13a (biphasic, maximal level) / first printed (±) 13b line
[14] = 10.0 μmol/kg p.o., (±) 13a / first (±) 13b

CN(C)C1CCc2ccc3[nH]ccc3c2C1 (racemic) [6,7,8,9-tetrahydro-N,N-dimethyl-3H-benz(e)indole-8-amine]
5-HT1A binding affinity (5-HT1A sites): high affinity
5-HT1A agonist properties in vivo (5-HT1A): exhibits 5-HT1A agonist properties in vivo

CCCN(CCC)C1CCc2ccc3[nH]ccc3c2C1 (racemic) [(±)-12b, 6,7,8,9-tetrahydro-N,N-dipropyl-3H-benz(e)indole-8-amine]
ED50 [1, 8]: 0.1 µmol/kg
ED50 [2]: 0.28 µmol/kg
Mot. act. (+/-) ([3]; sc): DA + 5-HT

CN(C)C1CCc2ccc3[nH]cc(C=O)c3c2C1 (racemic) [(±)-13a, 1-Formyl-6,7,8,9-tetrahydro-N,N-dimethyl-3H-benz(e)indole-8-amine]
ED50 ([1]; po): 7 µmol/kg
ED50 [1, 8]: 4 µmol/kg
ΔBP max ([4]; 2.0 μmol/kg i.v., (±) 13a): -12 ± 4 mm Hg
ΔHR max ([4]; 2.0 μmol/kg i.v., (±) 13a): +35 ± 34 beats/min
ΔHR max (minimal level of biphasic response) ([4]; 2.0 μmol/kg i.v., (±) 13a): -33 ± 23 beats/min
duration ΔBP [4, 9]: 150 min
ΔBP max [4, 9]: -60 ± 5 mm Hg
Δtemp max [4, 9]: -0.2 ± 0.65 °C
Δtemp max ([4]; 2.0 μmol/kg i.v., (±) 13a): -0.2 ± 0.40 °C
ΔHR max [4, 10]: +55 ± 14 beats/min
ΔBP max ([4]; 2.0 μmol/kg p.o.): -23 ± 2 mm Hg
ΔHR max ([4]; 2.0 μmol/kg p.o.): +37 ± 44 beats/min
Δtemp max ([4]; 2.0 μmol/kg p.o.): +1.2 ± 0 °C
ΔHR max ([4]; 10.0 μmol/kg i.v., (±) 13a, biphasic, maximal level): +87 ± 18 beats/min
ΔBP max [4, 11]: -3 ± 1 mm Hg
ΔHR max [4, 11]: +70 ± 47 beats/min
Δtemp max [4, 11]: -1.0 ± 0.15 °C
duration ΔBP [4, 12]: > 90 min
ΔBP max [4, 12]: -57 ± 4 mm Hg
ΔHR max (minimal level of biphasic response) [4, 12]: -37 ± 3 beats/min
Δtemp max [4, 12]: -0.7 ± 0.33 °C
ΔHR max (minimal level of biphasic response) ([4]; 10.0 μmol/kg p.o.): -39 ± 18 beats/min
ΔHR max [4, 13]: +24 ± 43 beats/min
duration ΔBP [4, 14]: 75 min
ΔBP max [4, 14]: -43 ± 22 mm Hg
Δtemp max [4, 14]: +0.7 ± 0.32 °C
bioavailability ([4]; 10 umol/kg, 10.0 μmol/kg p.o., from areas under the curves after po and iv administration, read-out: Bioavail): 48%
Mot. act. (+/-) ([3]; po): (+)5-HT
Mot. act. (+/-) ([3]; sc): (+)5-HT

CCCN(CCC)C1CCc2ccc3[nH]cc(C=O)c3c2C1 (racemic) [(±)-13b, 1-formyl-6,7,8,9-tetrahydro-N,N-dipropyl-3H-benz(e)indole-8-amine]
ED50 [1, 8]: 0.06 µmol/kg
IC50 [5]: 3.7 µM
duration ΔBP [4, 9]: 90 min
ΔBP max [4, 9]: -35 ± 3 mm Hg
Δtemp max [4, 9]: -1.5 ± 0.3 °C
ΔBP max ([4]; 2.0 μmol/kg i.v., (±) 13b): +14 ± 1 mm Hg
ΔHR max ([4]; 2.0 μmol/kg i.v., (±) 13b): -70 ± 15 beats/min
Δtemp max ([4]; 2.0 μmol/kg i.v., (±) 13b): -1.6 ± 0.2 °C
ΔHR max [4, 10]: +110 ± 10 beats/min
ΔHR max [4, 13]: +78 ± 11 beats/min
duration ΔBP [4, 14]: > 120 min
ΔBP max [4, 14]: -55 ± 5 mm Hg
Δtemp max [4, 14]: -1.0 ± 0.3 °C
duration ΔBP ([4]; 10.0 μmol/kg p.o., (±) 13b): 60 min
ΔBP max ([4]; 10.0 μmol/kg p.o., (±) 13b): +28 ± 6 mm Hg
ΔHR max ([4]; 10.0 μmol/kg p.o., (±) 13b): +70 ± 30 beats/min
Δtemp max ([4]; 10.0 μmol/kg p.o., (±) 13b): -0.8 ± 0.4 °C
bioavailability ([4]; po): 36%
Mot. act. (+/-) ([3]; sc): +5-HT

CCCN(CCC)C1COc2ccc3[nH]ccc3c2C1 (racemic) [(±)-21, 8-N,N-dipropylamino-8,9-dihydro-2H-pyrano-(3,2-e)-indol]
ED50 [1, 8]: 3.1 µmol/kg
ED50 [2]: 1 µmol/kg
Mot. act. (+/-) ([3]; sc): +DA

CCCN(CCC)C1COc2ccc3[nH]cc(C=O)c3c2C1 (racemic) [(±)-22, 1-formyl-8-N,N-dipropylamino-8,9-dihydro-2H-pyrano-(3,2-e)indole]
ED50 [1, 8]: 0.4 µmol/kg
Mot. act. (+/-) ([3]; sc): +5-HT

CCCN(CCC)C1CCc2cccc(O)c2C1 (racemic) [Compound 8-OH-DPAT, reference compound]
ED50 ([1]; po): 3 µmol/kg
ED50 [1, 8]: 0.048 µmol/kg
ΔBP max [6]: -12 ± 6 mm Hg
ΔHR max [6]: -83 ± 16 beats/min
Δtemp max ([6]; rectal): -1.5 ± 0.27 °C
Mot. act. (+/-) ([3]; sc): ++5-HT

CCCN(CCC)C1CCc2cc3cc[nH]c3cc2C1 (stereo not drawn) [5,6,7,8-N,N-di-n-propyl-1H-benz(f)indole-7-amine]
dopaminergic activity (central DA receptor): dopaminergically inactive

CN(C)[C@@H]1CCc2ccc3[nH]cc(C=O)c3c2C1 [(+)-13a, (+)-1-formyl-6,7,8,9-tetrahydro-N,N-dimethyl-3H-benz(e) indole-8-amine]
ED50 [1, 8]: 1 µmol/kg
IC50 [5]: 0.14 µM
Mot. act. (+/-) ([3]; sc): +5-HT

O=C1CC2(CCCC2)CC(=O)N1CCCCN1CCN(c2ncccn2)CC1 [Buspirone hydrochloride]
dopamine receptor antagonism (dopamine receptors): antagonizes dopamine receptors at the same dose it stimulates 5-HT1A receptors

CN(C)C1CCc2ccc3[nH]cc(Br)c3c2C1 (stereo not drawn) [Example 12, 1-Bromo-6,7,8,9-tetrahydro-N,N-dimethyl-8-amino-3H-benz[e]indole]
stability of the product [7]: unstable

CN(C)[C@@H]1CCc2ccc3[nH]ccc3c2C1 [R-6,7,8,9-tetrahydro-N,N-dimethyl-3H-benz(e)indole-8-amine]
5-HT1A binding affinity (5-HT1A sites): high affinity

CC1(C)CC(=O)N(CCCCN2CCN(c3ncccn3)CC2)C(=O)C1 [gepirone]
dopamine receptor antagonism (dopamine receptors): has dopamine antagonist properties
